Read-outs that look alike come from different tables or passages of the source.
Target: NaV1.7 (Homo sapiens (Human), UniProt Q15858)
Assay: Patch voltage clamp electrophysiology (EP), affinity for the inactivated state of Nav1.7
Format: cell-based
Conditions: HEK-293 cells expressing human Nav1.7 with β1 subunit
Procedure: The following patch voltage clamp electrophysiology studies were performed on representative compounds of the invention using human embryonic kidney cells (HEK), permanently transfected with an expression vector containing the full-length cDNA coding for the desired human sodium channel α-subunit, grown in culture media containing 10% FBS, 1% PSG, and 0.5 mg/mL G418 at 37° C. with 5% CO2. […] Nav1.7 and Nav1.5 cDNAs (NM_002977 and AC137587; SCN5A, respectively) were stably expressed in HEK-293 cells. The β1 subunit was coexpressed only in the Nav1.7 cell line.
Sodium currents were measured using the patch clamp technique in the whole-cell configuration using either a PatchXpress automated voltage clamp or manually using an Axopatch 200B (Axon Instruments) or Model 2400 (A-M systems) amplifier. […] The pipette was filled with a solution comprised of: 5 mM NaCl, 10 mM CsCl, 120 mM CsF, 0.1 mM CaCl2, 2 mM MgCl2, 10 mM HEPES, 10 mM EGTA; and adjusted to pH 7.2 with CsOH. The external solution had the following composition: 140 mM NaCl, 5 mM KCl, 2 mM CaCl2, 1 mM MgCl2, 10 mM HEPES; and adjusted to pH 7.4 with NaOH. In some studies, the external sodium was reduced by equimolar replacement with choline. Osmolarity in the CsF internal and NaCl external solutions was adjusted to 300 mOsm/kg and 310 mOsm/kg with glucose, respectively. All recordings were performed at ambient temperature in a bath chamber with a volume of 150 μL. Control sodium currents were measured in 0.5% DMSO. Controls and representative compounds of the invention were applied to the recording chamber through a 4-pinch or 8-pinch valve bath perfusion system manufactured by ALA Scientific Instruments.
Series resistance compensation was applied (60-80%). […] All statistics in this study are given as mean±SD.
The membrane potential was maintained at a voltage where inactivation of the channel is complete (which was −60 mV for both Nav1.7 and Nav1.5). The voltage is then stepped back to a very negative (Vhold=−150 mV) voltage for 20 ms and then a test pulse is applied to quantify the compound block. […] The percent decrease in sodium current following wash-on of compound was taken as the percent block of sodium channels.
The Example numbers provided in Table 1 and Table 2 correspond to the Examples herein: […]

NaV1.7, sequence (Q15858 other isoform, or with tags, fused parts or gaps): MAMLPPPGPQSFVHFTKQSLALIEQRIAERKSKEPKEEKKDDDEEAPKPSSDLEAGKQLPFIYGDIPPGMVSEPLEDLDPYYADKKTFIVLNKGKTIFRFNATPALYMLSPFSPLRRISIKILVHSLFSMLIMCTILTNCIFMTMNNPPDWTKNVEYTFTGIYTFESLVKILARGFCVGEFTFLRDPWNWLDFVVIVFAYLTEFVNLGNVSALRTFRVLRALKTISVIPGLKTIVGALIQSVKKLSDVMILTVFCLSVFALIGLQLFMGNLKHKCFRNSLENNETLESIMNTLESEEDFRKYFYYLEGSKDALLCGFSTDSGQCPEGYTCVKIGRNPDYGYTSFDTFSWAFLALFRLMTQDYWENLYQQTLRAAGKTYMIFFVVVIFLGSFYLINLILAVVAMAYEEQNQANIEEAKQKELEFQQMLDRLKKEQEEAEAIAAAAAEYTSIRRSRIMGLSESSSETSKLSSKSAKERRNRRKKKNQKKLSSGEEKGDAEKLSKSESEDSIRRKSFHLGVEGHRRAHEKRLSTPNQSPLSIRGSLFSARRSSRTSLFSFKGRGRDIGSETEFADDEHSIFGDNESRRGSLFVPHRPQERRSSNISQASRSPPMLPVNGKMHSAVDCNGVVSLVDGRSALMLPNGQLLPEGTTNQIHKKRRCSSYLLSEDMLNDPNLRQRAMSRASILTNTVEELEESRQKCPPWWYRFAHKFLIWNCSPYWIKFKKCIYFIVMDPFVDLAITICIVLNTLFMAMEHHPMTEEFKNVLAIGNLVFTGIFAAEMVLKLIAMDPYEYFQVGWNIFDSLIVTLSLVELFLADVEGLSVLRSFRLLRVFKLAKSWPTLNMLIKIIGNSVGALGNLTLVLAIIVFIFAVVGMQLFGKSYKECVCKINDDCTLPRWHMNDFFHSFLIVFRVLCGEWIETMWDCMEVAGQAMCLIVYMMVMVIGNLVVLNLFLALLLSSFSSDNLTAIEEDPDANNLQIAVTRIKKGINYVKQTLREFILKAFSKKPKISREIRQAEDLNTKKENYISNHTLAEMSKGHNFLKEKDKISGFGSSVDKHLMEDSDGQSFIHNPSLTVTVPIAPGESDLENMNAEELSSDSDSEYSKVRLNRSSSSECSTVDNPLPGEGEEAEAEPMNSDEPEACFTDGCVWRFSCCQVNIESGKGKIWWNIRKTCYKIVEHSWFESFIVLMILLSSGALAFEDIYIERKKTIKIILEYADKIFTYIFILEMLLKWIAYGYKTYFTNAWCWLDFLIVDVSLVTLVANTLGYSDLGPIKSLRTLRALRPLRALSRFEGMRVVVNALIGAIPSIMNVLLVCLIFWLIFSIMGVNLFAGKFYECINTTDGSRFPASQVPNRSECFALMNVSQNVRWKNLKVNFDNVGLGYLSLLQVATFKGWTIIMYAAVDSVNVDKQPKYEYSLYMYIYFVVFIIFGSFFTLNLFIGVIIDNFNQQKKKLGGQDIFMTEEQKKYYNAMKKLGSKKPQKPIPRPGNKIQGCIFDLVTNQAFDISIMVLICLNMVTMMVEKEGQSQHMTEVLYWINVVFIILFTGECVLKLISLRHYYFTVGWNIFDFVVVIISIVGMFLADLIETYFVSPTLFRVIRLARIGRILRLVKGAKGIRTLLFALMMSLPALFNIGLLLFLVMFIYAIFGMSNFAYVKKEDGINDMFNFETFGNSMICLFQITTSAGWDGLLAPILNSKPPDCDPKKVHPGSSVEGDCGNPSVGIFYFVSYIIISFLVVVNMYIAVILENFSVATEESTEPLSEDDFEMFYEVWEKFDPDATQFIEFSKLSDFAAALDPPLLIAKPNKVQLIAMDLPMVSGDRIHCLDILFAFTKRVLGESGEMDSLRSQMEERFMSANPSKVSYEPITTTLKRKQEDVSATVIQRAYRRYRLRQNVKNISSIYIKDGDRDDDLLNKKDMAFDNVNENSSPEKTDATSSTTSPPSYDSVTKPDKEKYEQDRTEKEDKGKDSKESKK
NaV1.7, sequence (Q07699 19-218 partner): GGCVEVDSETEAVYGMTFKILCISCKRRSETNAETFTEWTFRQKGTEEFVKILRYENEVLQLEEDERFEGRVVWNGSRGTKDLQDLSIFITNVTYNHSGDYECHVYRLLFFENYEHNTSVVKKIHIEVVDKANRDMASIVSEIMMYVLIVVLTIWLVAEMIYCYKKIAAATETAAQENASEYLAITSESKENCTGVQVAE

Structure (SMILES)	IC50 (read-out: NaV1.7 (IC50 class)) [nM]	IC50 (read-out: NaV1.7 IC50) [nM]
O=S(=O)(Nc1ncns1)c1cc(F)c(OC[C@@H]2CCCC[C@H]2c2ccc(F)cc2)cc1F (relative stereo) [Example 68, 2,5-difluoro-4-((trans-2-(4-fluorophenyl)cyclohexyl)methoxy)-N-(1,2,4-thiadiazol-5-yl)benzenesulfonamide]	100 to 1000	280
Cc1nsc(NS(=O)(=O)c2cc(F)c(OC[C@@H]3CNCC[C@H]3c3ccc(Cl)cc3)cc2F)n1 (relative stereo) [Example 52, 4-((trans-4-(4-chlorophenyl)piperidin-3-yl)methoxy)-2,5-difluoro-N-(3-methyl-1,2,4-thiadiazol-5-yl)benzenesulfonamide]	100 to 1000	194
O=S(=O)(Nc1ncns1)c1cc(F)c(OC[C@@H]2CN(CC(F)F)CC[C@H]2c2ccc(Cl)cc2)cc1F (relative stereo) [Example 83, 4-((trans-4-(4-chlorophenyl)-1-(2,2-difluoroethyl)piperidin-3-yl)methoxy)-2,5-difluoro-N-(1,2,4-thiadiazol-5-yl)benzenesulfonamide]	< 100	38.1
O=S(=O)(Nc1ncns1)c1cc(F)c(OC[C@@H]2CN(CCF)CC[C@H]2c2ccc(Cl)cc2)cc1F (relative stereo) [Example 80, 4-((trans-4-(4-chlorophenyl)-1-(2-fluoroethyl)piperidin-3-yl)methoxy)-2,5-difluoro-N-(1,2,4-thiadiazol-5-yl)benzenesulfonamide]	< 100	93.7
O=S(=O)(Nc1ncns1)c1cc(F)c(OC[C@@H]2CNC[C@H]2c2ccc(Cl)cc2)cc1F (relative stereo) [Example 54, 4-((trans-4-(4-chlorophenyl)pyrrolidin-3-yl)methoxy)-2,5-difluoro-N-(1,2,4-thiadiazol-5-yl)benzenesulfonamide]	< 100	49.9
O=S(=O)(Nc1ncns1)c1cc(F)c(OC[C@@H]2CNCC[C@H]2c2ccc(F)cc2)cc1F [Example 46, 2,5-difluoro-4-(((3S,4R)-4-(4-fluorophenyl)piperidin-3-yl)methoxy)-N-(1,2,4-thiadiazol-5-yl)benzenesulfonamide]	100 to 1000	928

Continued, values first:

IC50 (read-out: NaV1.7 (IC50 class)) [nM]	IC50 (read-out: NaV1.7 IC50) [nM]	Structure (SMILES)
< 100		O=S(=O)(Nc1ncns1)c1cc(F)c(OC[C@@H]2CNCC[C@H]2c2ccc(Cl)cc2)cc1F [Example 84, 4-(((3S,4R)-4-(4-chlorophenyl)piperidin-3-yl)methoxy)-2,5-difluoro-N-(1,2,4-thiadiazol-5-yl)benzenesulfonamide]
< 100	70.5	O=S(=O)(Nc1ccc(F)cn1)c1cc(F)c(OC[C@@H]2CNCC[C@H]2c2ccc(Cl)cc2)cc1F (relative stereo) [Example 63, 4-((trans-4-(4-chlorophenyl)piperidin-3-yl)methoxy)-2,5-difluoro-N-(5-fluoropyridin-2-yl)benzenesulfonamide]
100 to 1000	171	O=S(=O)(Nc1cccnn1)c1cc(F)c(OC[C@@H]2CNCC[C@H]2c2ccc(Cl)cc2)cc1F (relative stereo) [Example 65, 4-((trans-4-(4-chlorophenyl)piperidin-3-yl)methoxy)-2,5-difluoro-N-(pyridazin-3-yl)benzenesulfonamide]
1000 to 10000	1890	Cc1cc(NS(=O)(=O)c2cc(F)c(OC[C@@H]3CNCC[C@H]3c3ccc(Cl)cc3)cc2F)no1 (relative stereo) [Example 56, 4-((trans-4-(4-chlorophenyl)piperidin-3-yl)methoxy)-2,5-difluoro-N-(5-methylisoxazol-3-yl)benzenesulfonamide]
< 100	84.4	O=S(=O)(Nc1nncs1)c1cc(F)c(OC[C@@H]2CNCC[C@H]2c2ccc(Cl)cc2)cc1F (relative stereo) [Example 51, 4-((trans-4-(4-chlorophenyl)piperidin-3-yl)methoxy)-2,5-difluoro-N-(1,3,4-thiadiazol-2-yl)benzenesulfonamide]

Reference: patent publication US9630929B2, “Benzenesulfonamide compounds and their use as therapeutic agents” (XENON PHARMACEUTICALS INC., priority 2011, dated 2017)
